The values that follow come from patent publication US4115587A, “Fatty acid amides of norfenfluramine and compositions and methods thereof” (A. H. Robins Company, Inc., priority 1976, dated 1978).

Series [1] concerns Serum Triglycerides and Cholesterol. Nature of the series: Triton-induced hyperlipidemia test (Table 1). It is filed as in vivo, male Sprague-Dawley rats. Particulars: 140 mg/kg p.o.; for % Change Cholesterol / % Change Triglycerides: vs control; for Serum Cholesterol / Serum Triglycerides: ± SD. As for the experimental part: Fasted, male Sprague-Dawley rats weighing 250-350 g were fed ad libitum a commercial lab chow with free access to water. The animals were fasted overnight and administered Triton-WR-1339 (produced by Ruger Chemical Company, Inc., Irvington, New Jersey) as described by Schurr et al.; Lipids 7 68(1972) except the procedure was modified to use the saphenous vein and divided doses of 70 mg/kg. The rats were anesthetized with sodium pentobarbital and terminally bled by heart puncture. Serum was stored at -20° C. until it was analyzed for total cholesterol and triglycerides. Comparison was also made with clofibrate.

The nature of series [2]: Dietary-induced hyperlipemia test, basal semi-purified diet: liver weight, body weight, food consumption (Table 2). It is filed as in vivo, male Sprague-Dawley rats. As to conditions: .2% in food. The protocol:
(§1) General feeding experiments were conducted on rats to determine the effect of the amides of this invention on serum and liver lipids of animals fed a basal diet and a basal diet supplemented with cholesterol. In addition, the effect of these drugs on serum lipoproteins was studied as well as their effect on body weight, gross feed efficiency, liver weight, appetite and energy utilization with respect to their metabolic size. Male, Sprague-Dawley rats weighing 150-175 g. were housed in cages with raised wire floors in a room kept at a temperature of 24°-26° C. with a 12-hour day and 12-hour night cycle, fed ad libitum a semipurified diet consisting by weight % composition: vitamin-free casein, 20; glucose, 63; hydrogenated coconut oil, 10; GBI Vitamin Fortification Mixture, Cat. #40060 obtained from General Biochemical Company of Chargrin Falls, Ohio, 1; modified salt mix of Williams and Briggs, Cat. #170911 obtained from General Biochemical Company, 4; and cellulose, 2; and watered. The modified salt mix provided the following amounts in grams of elements per Kg. of diet:
(§2) Diets were supplemented with 0.5% cholic acid, 1% cholesterol, and drug at the expense of glucose. The experimental period was 18-21 days with body weight and food measured at specified intervals. Animals were fasted overnight and terminally bled by cardiac puncture. Blood was anti-coagulated with ethylenediamine tetracetic acid and plasma was separated by centrifugation, and stored at -20° C. Livers were excised, weighed, and stored at -20° C. All samples remained at this temperature until they were analyzed for total lipids, total cholesterol, triglycerides and phospholipids. Gross feed efficiency together with the effect of metabolic size on food intake and the effect of drug on energy utilization were determined.
(§3) Results of testing the mixed amides of Example 5 and reference compounds in rats on a basal diet according to the foregoing procedure for dietary induced hyperlipemia are in Tables 2 and 3.

Series [3] deals with Serum and Liver Lipids. Nature of the series: Dietary-induced hyperlipemia test, basal semi-purified diet: serum and liver lipids (Table 3). It is filed as in vivo, male Sprague-Dawley rats. Particulars: .2% in food, ± S.D. The protocol: as §1, §2, §3
The format of series [4] is in vivo, male Sprague-Dawley rats. As to conditions: cholesterol diet, .2% in food. As for the experimental part:
as §1, §2
(§4) Results of testing the mixed amides of Example 5 an reference compounds in rats on a basal diet with added cholesterol according to the foregoing procedure for dietary induced hyperlipemia are in Tables 4 and 5.

Series [5] relates to Serum and Liver Lipids. Nature of the series: Dietary-induced hyperlipemia test, basal diet with cholesterol: serum and liver lipids (Table 5). As to conditions: .2% in food, ± S.D. The series is classed as in vivo, male Sprague-Dawley rats. As for the experimental part: as §1, §2, §4
Series [6] has as its system Serum Lipoproteins. Nature of the series: Serum lipoproteins of rats fed semi-purified diet supplemented with cholesterol (Table 7). The series is classed as in vivo. As to conditions: .2% in food. As for the experimental part:
as §1, §2
^a VLDL, very low density lipoproteins; LDL, low density lipoproteins
and HDL, high density lipoproteins as determined on a Beckman-Gilford

Series [7] relates to β-Sterol Synthesis, Liver. Nature of the series: β-Sterol synthesis, acetate-1-14C incorporation, liver (Table 8). The series is classed as in vivo, male Sprague-Dawley rats. As to conditions: Liver; 140 mg/kg p.o.; ± S.D. As for the experimental part:
(§5) The effect of the mixed amides of Example 5 and reference compounds on β Sterol synthesis was determined by a modified procedure of Hill and Dvornik Arch. Biochem. Biophys. 114 (1966), 88. Male Sprague-Dawley rates weighing 127-175 g. were freely provided a basal semi-purified diet and water. The rats were housed in cages with raised wire floors in a room kept at a temperature of 24°-26° C. with a 12-hour day-12-hour night cycle. The cycle was reversed so the night cycle corresponded to the working day to take advantage of the circadian rhythm that favors cholesterol synthesis. The test period was five days and 20 μCi sodium acetate-1-^14 C (Sp. act. 56 mCi/m mole) administered intraperitoneally. Animals were sacrificed under carbon dioxide and the distal 10 cm of the ileum as well as the median and left liver lobes excised and homogenized. Subsequently, the β Sterols were isolated as the digitonide and the radioactivity determined in a Packard Tricarb Liquid Scintillation Spectrometer Model 3385 using 0.5% 2,5 diphenyloxazole and 8% naphthalene in a solvent mixture of 40% toluene, 40% dioxane and 20% absolute ethanol. Data for the effect of the mixed amides of Example 5 on the synthesis of nonsaponifiable substances and β Sterols as determined by the Digitonide method are shown in Table 8. […] A prior art compound, α-methylbenzyllinoleamide at 140 mg/kg, p.o. had no effect on cholesterol synthesis in either tissue.

The test system of series [8] is β-Sterol Synthesis, Ileum. Nature of the series: β-Sterol synthesis, acetate-1-14C incorporation, ileum (Table 8). It is filed as in vivo, male Sprague-Dawley rats. As to conditions: Ileum; 140 mg/kg p.o.; ± S.D. The protocol:
as §5

The test system of series [9] is Serum and Liver Lipids. In words: Linoleamide of norfenfluramine in rats fed a hypercholesteremic diet: serum and liver lipids (Table 6). It is filed as in vivo. As to conditions: 0.2% in food. The protocol:
as §1, §2
(a) ± values are standard deviation of 10 animals per group.
(b) Semi-purified diet supplemented with 1% cholesterol and 0.5% cholic
acid at expense of glucose.

The structures appear in SMILES notation. Like-named read-outs stand apart in the source and are kept apart here.

With `CCCCCCCC/C=C\CCCCCCCC(=O)NC(C)Cc1cccc(C(F)(F)F)c1` (stereo not drawn) [Ex.2, N-[1-methyl-2-(3-trifluoromethylphenyl)ethyl]octadec-9-enamide cis isomer], in [1] (Test Group IV), the “% Change Cholesterol” value was -39%, the “% Change Triglycerides” value is reported as -73%, the “Serum Cholesterol” value is reported as 173.3 ± 10.2 mg/100 ml and the “Serum Triglycerides” value amounted to 166.3 ± 37.2 mg/100 ml.

With `CCOC(=O)C(C)(C)Oc1ccc(Cl)cc1` [Clofibrate, ethyl p-chlorophenoxyisobutyrate], in series [1] (Test Group I), the “% Change Cholesterol” value was -24.0%, the “% Change Triglycerides” value is -79%, the “Serum Cholesterol” value came to 173.0 ± 54.0 mg/100 ml and the “Serum Triglycerides” value stood at 124.5 ± 7.8 mg/100 ml. In series [1] (Test Group II), the “% Change Cholesterol” value is recorded as -24% and the “Serum Cholesterol” value is 94.1 ± 13.6 mg/100 ml. In [1] (Test Group III), the “% Change Triglycerides” value was -20%, the “Serum Cholesterol” value is reported as 109.3 ± 24.4 mg/100 ml and the “Serum Triglycerides” value was found to be 132.7 ± 64.5 mg/100 ml. In series [1] (Test Group IV), the “% Change Cholesterol” value is on record as -24%, the “% Change Triglycerides” value is -34%, the “Serum Cholesterol” value was 213.0 ± 14.1 mg/100 ml and the “Serum Triglycerides” value came to 411.7 ± 118.0 mg/100 ml. In [2], the “Food Consumed” value stood at 306 g. Further, in [2] (gross weight gain in grams/total food consumed in grams), the “Gross Feed Efficiency” value is recorded as “.180”. In series [2] (± S.D.), the “Body wt, Final” value is 210 ± 21 g; the “Liver wt per 100 g body wt.” value is reported as 4.4 ± .4 g; the “Liver wt, Total” value is recorded as 9.2 ± .4 g. Besides, in series [3], the “Liver Cholesterol” value is recorded as 2.63 ± .09 mg/g; the “Liver Lipids, Total” value stood at 51.21 ± 7.89 mg/g; the “Liver Triglycerides” value is recorded as 1.78 ± .43 mg/g; the “Serum Cholesterol” value is 89.83 ± 8.77 mg/100 ml. For the same molecule, in series [3], the “Serum Lipids, Total” value is reported as 143.70 ± 22.42 mg/100 ml and the “Serum Triglycerides” value was 31.83 ± 7.08 mg/100 ml. For the same molecule, the “Food Consumed” value in series [4] turned out to be 340 g. In addition, the “Gross Feed Efficiency” value in [4] (gross weight gain/total food consumed in grams) is listed as “.215”. In series [4] (± S.D.), the “Body wt, Final” value was 208 ± 16 g; the “Liver wt per 100 g body wt.” value was determined as 4.9 ± 1.2 g; the “Liver wt, Total” value turned out to be 10.4 ± 2.6 g. Further, the “Liver Triglycerides” value in series [5] was determined as 7.83 ± 2.22 mg/g. For the same molecule, the “Serum Cholesterol” value in series [5] (p<.05 for Ex. 5) is 235.00 ± 68.27 mg/100 ml. Further, in series [5] (p<.05 for all), the “Liver Cholesterol” value turned out to be 14.17 ± 9.10 mg/g; the “Liver Lipids, Total” value is reported as 93.83 ± 12.06 mg/g; the “Serum Lipids, Total” value came to 430.33 ± 119.37 mg/100 ml. Also, the “Serum Triglycerides” value in [5] (p<.05 for clofibrate) is 126.50 ± 47.21 mg/100 ml. In series [6], the “Albumin, Percentage Composition” value stood at 22.63%; the “HDL, Percentage Composition” value is listed as 9.03%; the “LDL, Percentage Composition” value is 42.56%; the “VLDL, Percentage Composition” value turned out to be 25.76%. Also, in series [7], the “Acetate-1-14C incorporated, Digitonide” value came out at 1.588 ± 1.216 n moles/g tissue and the “Acetate-1-14C incorporated, Non-saponifiable” value is recorded as 2.943 ± 1.707 n moles/g tissue. Further, in series [8], the “Acetate-1-14C incorporated, Digitonide” value was 6.098 ± .909 n moles/g tissue and the “Acetate-1-14C incorporated, Non-saponifiable” value is listed as 6.774 ± 1.447 n moles/g tissue.

Regarding `CCCCC/C=C\C/C=C\CCCCCCCC(=O)NC(C)Cc1cccc(C(F)(F)F)c1` (stereo not drawn) [Ex. 1, N-[1-methyl-2-(3-trifluoromethylphenyl)ethyl]octadeca-9,12-dienamide(cis-cis)], in series [1] (Test Group I), the “% Change Triglycerides” value is listed as -54%, the “Serum Cholesterol” value is given as 209.0 ± 16.4 mg/100 ml and the “Serum Triglycerides” value is given as 268.7 ± 69.6 mg/100 ml. For the same molecule, in series [9] (SD 0.73 (10 animals), p<.05), the “Liver Cholesterol” value worked out at 7.15 mg/g. In addition, in series [9] (SD 3.67 (10 animals), p<.05), the “Liver Triglycerides” value is 5.59 mg/g. Moreover, the “Serum Phospholipids” value in [9] (SD 18.4 (10 animals)) turned out to be 105.4 mg/100 ml. For the same molecule, the “Serum Cholesterol” value in series [9] (SD 30 (10 animals), p<.05) is given as 212 mg/100 ml. For the same molecule, the “Serum Triglycerides” value in series [9] (SD 62 (10 animals), p<.05) came to 156 mg/100 ml. Besides, the “Liver Phospholipids” value in [9] (SD printed + 8.75 (10 animals)) is listed as 24.1 mg/g.

Regarding `CCCCCCCC/C=C/CCCCCCCC(=O)NC(C)Cc1cccc(C(F)(F)F)c1` (stereo not drawn) [Ex.3, N-[1-methyl-2-(3-trifluoromethylphenyl)ethyl]octadec-9-enamide trans isomer], in [1] (Test Group IV), the “% Change Cholesterol” value is reported as -25%, the “% Change Triglycerides” value is on record as -58%, the “Serum Cholesterol” value was found to be 210.0 ± 47.8 mg/100 ml and the “Serum Triglycerides” value was 260.0 ± 137.8 mg/100 ml.

For `CCCCCCCCCCCCCCCCCC(=O)NC(C)Cc1cccc(C(F)(F)F)c1` (stereo not shown) [Ex.4, N-[1-methyl-2-(3-trifluoromethylphenyl)ethyl]octadecanamide], in series [1] (Test Group IV), the “% Change Cholesterol” value is on record as -24%, the “% Change Triglycerides” value is -74%, the “Serum Cholesterol” value was 214.3 ± 91.6 mg/100 ml and the “Serum Triglycerides” value is listed as 160.0 ± 110.0 mg/100 ml.
